The results in this text go back to patent publication US10034886B2, “GLP-1 receptor modulators” (Celgene International II SÀRL, priority 2014, dated 2018).

SMILES strings stand for the structures. Read-outs that look alike come from different tables or passages of the source. Where only a bound is given, the exact number is not on record here.

In this assay the target is T1, GLP-1R (Homo sapiens, UniProt P43220).
T1 construct: host or cells: GLP-1R CRE-bla CHO-K1 cells
Nature of the assay: EC20 GLP-1(9-36) PAM cAMP assay: dose response of compound in the presence of fixed concentration of GLP-1(9-36). It counts as cell-based. The note with it: GLP-1R CRE-bla CHO-K1 cells, read-out: EC20 GLP-1(9-36) PAM EC50. A digest of the protocol: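 GLP-1R CRE-bla CHO-K1 cells treated 30 min at 37 °C with 12-point compound dose response plus fixed EC20 GLP-1(9-36), with IBMX, in HBSS/HEPES/0.1% BSA pH 7.4. Total cAMP measured by luminescent detection against standard curve; EC50 and Emax from non-linear regression.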
In general terms: Changes in cAMP serve as a functional read-out for many G protein-coupled receptors.

Setting [1] is: dose response of compound in presence of fixed concentration of GLP-1(9-36).
[2] abbreviates: compound dose response with fixed concentration of GLP-1(9-36).

T1 sequence (P43220 24-463): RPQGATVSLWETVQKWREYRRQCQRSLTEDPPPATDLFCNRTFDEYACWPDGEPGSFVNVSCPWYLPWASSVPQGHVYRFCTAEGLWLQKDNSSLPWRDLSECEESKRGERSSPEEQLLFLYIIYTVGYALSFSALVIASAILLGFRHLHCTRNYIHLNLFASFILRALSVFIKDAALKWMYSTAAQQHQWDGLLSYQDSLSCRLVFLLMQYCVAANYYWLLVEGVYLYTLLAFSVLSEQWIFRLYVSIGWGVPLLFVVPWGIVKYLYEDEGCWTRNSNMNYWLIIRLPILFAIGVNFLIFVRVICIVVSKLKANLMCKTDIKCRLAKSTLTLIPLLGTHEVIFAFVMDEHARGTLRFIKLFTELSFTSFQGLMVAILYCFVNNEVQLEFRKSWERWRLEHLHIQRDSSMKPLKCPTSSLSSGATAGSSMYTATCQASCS
T1 sequence (P01275 100-127 partner limits assumed): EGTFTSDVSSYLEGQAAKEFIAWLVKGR

Broadly, the EC50 is the concentration that produces a half-maximal response. As to `CCCCCCCOc1ccc(-c2cnc(-c3ccc(C[C@H](NC(=O)c4ccc(C(C)(C)C)s4)C(=O)N[C@H](C(=O)O)C(C)c4ccccc4)cc3)nc2)cc1` (some centres unmarked) [Compound 899], the EC50 under setting [1] fell in the range of 2500 to 5000 nM.
For `CCCc1ccc(-c2ccc(-c3cnc(-c4ccc(C[C@H](NC(=O)c5ccc(CC(C)C)s5)C(=O)N5CC(C(=O)O)C5)cc4)nc3)c(F)c2)cc1` [Compound 1405], the EC50 under setting [2] is below 800 nM.
As for `CCCCCOc1ccc(-c2cnc(-c3ccc(C[C@H](NC(=O)c4ccc(C(C)(C)C)cc4)C(=O)NCCC(=O)O)cc3)nc2)cc1` [Compound 710], the EC50 under setting [1] lay in the range of 5000 to 10000 nM.
Turning to `CCCCCCCOc1ccc(-c2cnc(-c3ccc(C[C@H](NC(=O)c4ccc(C(C)(C)C)cc4)C(=O)NC(Cc4cscn4)C(=O)O)cc3)nc2)cc1` (some centres unmarked) [Compound 544], the EC50 under setting [1] is below 800 nM.
For the molecule `CC(=O)c1ccc(-c2ccc(-c3cnc(-c4ccc(C[C@H](NC(=O)c5ccc(C(C)(C)C)s5)C(=O)O)cc4)nc3)cc2)cc1` [Compound 1352], the EC50 under setting [2] lay within 800 to 2500 nM.
Consider `CCc1ccc(C(=O)N[C@@H](Cc2ccc(-c3ncc(-c4ccc([C@H]5CC[C@H](CC)CC5)cc4)cn3)cc2)C(=O)N2CC(C(=O)O)C2)s1` [Compound 1153], for which the EC50 under setting [1] was below 800 nM.
For `CCCCOc1ccc(-c2cnc(-c3ccc(C[C@H](NC(=O)c4ccc(C(C)(C)C)cc4)C(=O)N[C@H](C)C(=O)O)cc3)nc2)cc1` [Compound 717], the EC50 under setting [1] is 800 to 2500 nM.
In the case of `CCCc1ccc(C(=O)N[C@@H](Cc2ccc(-c3ncc(-c4ccc(OCCCC(C)C)cc4)cn3)cc2)C(=O)N2CC(C(=O)O)C2)s1` [Compound 1240], the EC50 under setting [2] was 800 to 2500 nM.
Same read-out and setting: the result for `CCCc1ccc(C(=O)N[C@@H](Cc2ccc(-c3ncc(-c4ccc(OCCCC(C)C)cc4)cn3)cc2)C(=O)N2CC(C(=O)O)C2)cc1` [Compound 1232] reads 800 to 2500 nM.
`CCc1ccc(C(=O)N[C@@H](Cc2ccc(-c3ncc(-c4ccc([C@H]5CC[C@H](CC)CC5)cc4)cn3)cc2)C(=O)O)cc1` [Compound 1370]: the EC50 under setting [2] lay in the range of 800 to 2500 nM.
In the case of `Cc1ccc(-c2ccc(-c3cnc(-c4ccc(C[C@H](NC(=O)c5ccc(C(C)(C)C)s5)C(=O)N[C@H](C)C(=O)O)cc4)nc3)c(F)c2)cc1` [Compound 1172], under setting [1], the EC50 is 800 to 2500 nM.
`C[C@@H](NC(=O)[C@H](Cc1ccc(-c2ncc(-c3ccc4c(ccn4S(=O)(=O)c4ccccc4)c3)cn2)cc1)NC(=O)c1ccc(C(C)(C)C)s1)C(=O)O` [Compound 1010]: under setting [1], the EC50 was 2500 to 5000 nM.
For the molecule `CC(C)(C)c1ccc(C(=O)N[C@@H](Cc2ccc(-c3ncc(-c4ccc([C@H]5CC[C@@H](C(C)(C)C)CC5)cc4)cn3)cc2)C(=O)N2CC(C(=O)O)C2)s1` [Compound 1182], the EC50 under setting [1] is below 800 nM.
As for `CCCCCCCOc1ccc(-c2cnc(-c3ccc(C[C@H](NC(=O)c4ccc(C(C)(C)C)cc4)C(=O)N4C[C@@H](O)C[C@@H]4C(=O)O)cc3)nc2)cc1` [Compound 586], the EC50 under setting [1] was below 800 nM.
Regarding `CCC[C@H]1CC[C@H](C2CCN(c3cnc(-c4ccc(C[C@H](NC(=O)c5ccc(C(C)(C)C)s5)C(=O)N[C@H](CN)C(=O)O)cc4)nc3)CC2)CC1` [Compound 1473], the EC50 under setting [2] was below 800 nM.
On to `CCCCCCCOc1ccc(-c2cnc(-c3ccc(C[C@H](NC(=O)c4cnn(C(C)(C)C)c4C)C(=O)N4CCC[C@H]4C(=O)O)cc3)nc2)cc1` [Compound 1079], for which, under setting [1], the EC50 is 2500 to 5000 nM.
Turning to `CCCCCCCOc1ccc(-c2cnc(-c3ccc(CC(NC(=O)c4ccc(C(C)(C)C)s4)C(=O)NCCCC(=O)O)cc3)nc2)cc1` (centres unmarked) [Compound 429], the EC50 under setting [1] fell in the range of 2500 to 5000 nM.
With `CC(C)(C)COc1ccc(-c2cnc(-c3ccc(C[C@H](NC(=O)c4ccc(C(C)(C)C)s4)C(=O)O)cc3)nc2)cc1` [Compound 1350], the EC50 under setting [2] was 2500 to 5000 nM.
Take `CCCCCCCOc1ccc(-c2ccc(-c3ccc(C[C@H](NC(=O)c4ccc(C(C)(C)C)cc4)C(=O)O)cc3)nn2)cc1` [Compound 273]: the half-maximal effective concentration (EC50) under setting [1] lay in the range of 800 to 2500 nM.
As for `CCCCCCCOc1ccc(-c2cnc(-c3ccc(C[C@H](NC(=O)c4ccc(C(C)(C)C)s4)C(=O)N[C@H](C(=O)O)[C@H](O)c4ccccc4)cc3)nc2)cc1` [Compound 642], the EC50 under setting [1] is below 800 nM.
